Assay results taken from PMC6372556, “The Neisseria gonorrhoeae Methionine Sulfoxide Reductase (MsrA/B) Is a Surface Exposed, Immunogenic, Vaccine Candidate” (Frontiers in Immunology, 2019).

Target: T1, MsrA/B
T1 construct: recombinant, msr gene of strain 1291 in pET15b (NdeI/XhoI primers), His-tagged, E. coli BL21 Star (DE3)pLysS, TALON purified; full protein 522 aa; amine-coupled to SPR chip
Experiment: SPR, Biacore T200, single cycle kinetics, MsrA/B immobilized by amine coupling on CM5 chip
Format: binding, Neisseria gonorrhoeae
Conditions: free Met(O) 0.16-100 nM; no serum; substrate; sulfoxide epimer and D/L form not told
From the text: SPR, Biacore T200, single cycle kinetics, MsrA/B immobilized by amine coupling on CM5 chip on MsrA/B | MsrA/B bound to Met(O) with a high affinity, with a KD

Structure (SMILES): C[S+]([O-])CC[C@H](N)C(=O)O (stereo partly shown) [Met(O)]
- Kd: 15.4 ± 3.7 nM
